Reference: US11999716B2, “WDR5 inhibitors and modulators” (priority 2018, dated 2024)

These compounds were tested on MV4:11 human cancer cell lines (assay: Cellular viability / anti-proliferative activity, CellTiter-Glo, 5 day protocol). Settings: Homo sapiens, MV4-11, 120 h, MV4:11 cells; 5 day incubation; CellTiter-Glo; mean of minimum two replicates; read-out: GI50 on cellular proliferation of MV4:11 human cancer cell lines.
Type: cell-based
In short: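 Compounds were tested over 22 two-fold dilutions starting at 30 μM in 0.3% DMSO, with 200 cells per well (7200 cells/mL). Viability was measured by CellTiter-Glo luminescence at day 5.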

Point of comparison: COc1ccnc(CN2CCc3c(cc(Cn4cnsc4=N)cc3-c3cn(C)nc3C(F)(F)F)C2=O)c1 [Example 130, 7-((5-Imino-1,2,4-thiadiazol-4(5H)-yl)methyl)-2-((4-methoxypyridin-2-yl)methyl)-5-(1-methyl-3-(trifluoromethyl)-1H-pyrazol-4-yl)-3,4-dihydroisoquinolin-1(2H)-one], GI50 845 nM. Against it:
- Cn1cc(-c2cc(Cn3ccn(C)c3=N)cc3c2CCN(Cc2cc(C4CC4)nn2C)C3=O)c(C(F)(F)F)n1 [Example 147, 2-((3-Cyclopropyl-1-methyl-1H-pyrazol-5-yl)methyl)-7-((2-imino-3-methyl-2,3-dihydro-1H-imidazol-1-yl)methyl)-5-(1-methyl-3-(trifluoromethyl)-1H-pyrazol-4-yl)-3,4-dihydroisoquinolin-1(2H)-one] — 12-fold lower, 73 nM
- Cc1cc([C@H](C2CC2)N2CCc3c(cc(Cn4ccn(C)c4=N)cc3-c3cccnc3C(F)(F)F)C2=O)ccc1F [Example 34, (S)-2-(Cyclopropyl(4-fluoro-3-methylphenyl)methyl)-7-((2-imino-3-methyl-2,3-dihydro-1H-imidazol-1-yl)methyl)-5-(2-(trifluoromethyl)pyridin-3-yl)-3,4-dihydroisoquinolin-1(2H)-one] — 3.9-fold lower, 215 nM
- COc1ccnc([C@H](C)N2CCc3c(cc(Cn4ccnc4C)cc3-c3c[nH]nc3C)C2=O)c1 [Example 238, (S)-2-(1-(4-methoxypyridin-2-yl)ethyl)-7-((2-methyl-1H-imidazol-1-yl)methyl)-5-(3-methyl-1H-pyrazol-4-yl)-3,4-dihydroisoquinolin-1(2H)-one] — 3.7-fold lower, 227 nM
- COc1ccnc(CN2CCc3c(cc(Cn4ccn(C)c4=N)cc3-c3cccnc3C)C2=O)c1 [Example 60, 7-((2-Imino-3-methyl-2,3-dihydro-1H-imidazol-1-yl)methyl)-2-((4-methoxypyridin-2-yl)methyl)-5-(2-methylpyridin-3-yl)-3,4-dihydroisoquinolin-1(2H)-one] — higher, > 938 nM
- Cc1nccn1Cc1cc2c(c(-c3cn(C)nc3C(F)(F)F)c1)CCN(Cc1cc(Br)cc3[nH]ccc13)C2=O [Example 236, 2-((6-Bromo-1H-indol-4-yl)methyl)-7-((2-methyl-1H-imidazol-1-yl)methyl)-5-(1-methyl-3-(trifluoromethyl)-1H-pyrazol-4-yl)-3,4-dihydroisoquinolin-1(2H)-one] — 7-fold lower, 121 nM
- COc1cc(CN2CCc3c(cc(Cn4cnnc4C)cc3-c3ccc(F)cc3C)C2=O)cc(OC)c1 [Example 145, 2-(3,5-Dimethoxybenzyl)-5-(4-fluoro-2-methylphenyl)-7-((3-methyl-4H-1,2,4-triazol-4-yl)methyl)-3,4-dihydroisoquinolin-1(2H)-one] — higher, > 938 nM
- CCn1cc(-c2cc(Cn3cnc(C)c3C)cc3c2CCN([C@@H](C)c2cc(OC)ccn2)C3=O)c(C(F)(F)F)n1 [Example 178, (S)-7-((4,5-Dimethyl-1H-imidazol-1-yl)methyl)-5-(1-ethyl-3-(trifluoromethyl)-1H-pyrazol-4-yl)-2-(1-(4-methoxypyridin-2-yl)ethyl)-3,4-dihydroisoquinolin-1(2H)-one] — 5.6-fold lower, 152 nM
- CCn1cc(-c2cc(CN3CCSC3=N)cc3c2CCN([C@@H](C)c2cc(OC)ccn2)C3=O)c(C(F)(F)F)n1 [Example 151, (S)-5-(1-Ethyl-3-(trifluoromethyl)-1H-pyrazol-4-yl)-7-((2-iminothiazolidin-3-yl)methyl)-2-(1-(4-methoxypyridin-2-yl)ethyl)-3,4-dihydroisoquinolin-1(2H)-one] — lower, < 50 nM
- COc1ccnc(CN2CCc3c(cc(Cn4ccnc4N)cc3-c3cn(C)nc3C(F)(F)F)C2=O)c1 [Example 65, 7-((2-Amino-1H-imidazol-1-yl)methyl)-2-((4-methoxypyridin-2-yl)methyl)-5-(1-methyl-3-(trifluoromethyl)-1H-pyrazol-4-yl)-3,4-dihydroisoquinolin-1(2H)-one] — lower, < 50 nM
- CCn1cc(-c2cc(Cn3ccn(C)c3=N)cc3c2CCN(Cc2cc(OC)ccn2)C3=O)c(C(F)(F)F)n1 [Example 57, 5-(1-Ethyl-3-(trifluoromethyl)-1H-pyrazol-4-yl)-7-((2-imino-3-methyl-2,3-dihydro-1H-imidazol-1-yl)methyl)-2-((4-methoxypyridin-2-yl)methyl)-3,4-dihydroisoquinolin-1(2H)-one] — 17-fold lower, 50 nM
- COc1cc(CN2CCc3c(cc(Cn4ccnc4C4CC4)cc3-c3ccc(F)cc3C)C2=O)cc(OC)c1 [Example 16, 7-((2-Cyclopropyl-1H-imidazol-1-yl)methyl)-2-(3,5-dimethoxybenzyl)-5-(4-fluoro-2-methylphenyl)-3,4-dihydroisoquinolin-1(2H)-one] — higher, > 938 nM
- CCn1cc(CN2CCc3c(cc(CN4CCOC4=N)cc3-c3cn(CC)nc3C(F)(F)F)C2=O)nn1 [Example 99, 2-((1-Ethyl-1H-1,2,3-triazol-4-yl)methyl)-5-(1-ethyl-3-(trifluoromethyl)-1H-pyrazol-4-yl)-7-((2-iminooxazolidin-3-yl)methyl)-3,4-dihydroisoquinolin-1(2H)-one] — 11-fold lower, 77 nM
- Cc1nnc(CN2CCc3c(cc(Cn4ccnc4C)cc3-c3cn(C)nc3C(F)(F)F)C2=O)o1 [Example 188, 2-((5-Methyl-1,3,4-oxadiazol-2-yl)methyl)-7-((2-methyl-1H-imidazol-1-yl)methyl)-5-(1-methyl-3-(trifluoromethyl)-1H-pyrazol-4-yl)-3,4-dihydroisoquinolin-1(2H)-one] — within 1.5-fold, 730 nM
- COc1ccnc(CN2CCc3c(cc(Cn4ccnc4C)cc3-c3cc(F)cnc3C)C2=O)c1 [Example 229, 5-(5-Fluoro-2-methylpyridin-3-yl)-2-((4-methoxypyridin-2-yl)methyl)-7-((2-methyl-1H-imidazol-1-yl)methyl)-3,4-dihydroisoquinolin-1(2H)-one] — within 1.5-fold, 1050 nM
- COc1cc(CN2CCCc3c(cc(Cn4ccnc4C)cc3-c3ccc(F)cc3C)C2=O)cc(OC)c1 [Example 141, 2-(3,5-dimethoxybenzyl)-6-(4-fluoro-2-methylphenyl)-8-((2-methyl-1H-imidazol-1-yl)methyl)-2,3,4,5-tetrahydro-1H-benzo[c]azepin-1-one] — higher, > 938 nM
- COc1ccnc(CN2CCc3c(cc(CNc4nnc5ccccn45)cc3-c3cn(C)nc3C(F)(F)F)C2=O)c1 [Example 135, 7-(([1,2,4]Triazolo[4,3-a]pyridin-3-ylamino)methyl)-2-((4-methoxypyridin-2-yl)methyl)-5-(1-methyl-3-(trifluoromethyl)-1H-pyrazol-4-yl)-3,4-dihydroisoquinolin-1(2H)-one] — higher, > 938 nM
- CCn1cc(-c2cc(Cn3cnc(C)c3)cc3c2CCN([C@H](c2cc(OC)ccn2)C2CC2)C3=O)c(C(F)(F)F)n1 [Example 244, (S)-2-(cyclopropyl(4-methoxypyridin-2-yl)methyl)-5-(1-ethyl-3-(trifluoromethyl)-1H-pyrazol-4-yl)-7-((4-methyl-1H-imidazol-1-yl)methyl)-3,4-dihydroisoquinolin-1(2H)-one] — 7.1-fold lower, 119 nM
- Cc1cc([C@H](C)N2CCc3c(cc(Cn4ccn(C)c4=N)cc3-c3cn(C)nc3C(F)(F)F)C2=O)ccc1F [Example 79, (S)-2-(1-(4-Fluoro-3-methylphenyl)ethyl)-7-((2-imino-3-methyl-2,3-dihydro-1H-imidazol-1-yl)methyl)-5-(1-methyl-3-(trifluoromethyl)-1H-pyrazol-4-yl)-3,4-dihydroisoquinolin-1(2H)-one] — lower, < 50 nM
- Cc1cc(C)nc([C@H](C)N2CCc3c(cc(Cn4ccnc4C)cc3-c3cn(C)nc3C(F)(F)F)C2=O)c1 [Example 165, (S)-2-(1-(4,6-Dimethylpyridin-2-yl)ethyl)-7-((2-methyl-1H-imidazol-1-yl)methyl)-5-(1-methyl-3-(trifluoromethyl)-1H-pyrazol-4-yl)-3,4-dihydroisoquinolin-1(2H)-one] — lower, < 50 nM
- Cc1cncc([C@H](C)N2CCc3c(cc(Cn4ccnc4C)cc3-c3cn(C)nc3C(F)(F)F)C2=O)c1 [Example 200, (S)-7-((2-Methyl-1H-imidazol-1-yl)methyl)-5-(1-methyl-3-(trifluoromethyl)-1H-pyrazol-4-yl)-2-(1-(5-methylpyridin-3-yl)ethyl)-3,4-dihydroisoquinolin-1(2H)-one] — lower, < 50 nM
- Cc1cc([C@H](C)N2CCc3c(cc(Cn4ccn(C)c4=N)cc3-c3cn(C)nc3C)C2=O)ccc1F [Example 143, (S)-5-(1,3-Dimethyl-1H-pyrazol-4-yl)-2-(1-(4-fluoro-3-methylphenyl)ethyl)-7-((2-imino-3-methyl-2,3-dihydro-1H-imidazol-1-yl)methyl)-3,4-dihydroisoquinolin-1(2H)-one] — lower, < 50 nM
- Cc1nccn1Cc1cc2c(c(-c3cn(C)nc3C(F)(F)F)c1)CCN(CC1CCCCN1C)C2=O (centres unmarked) [Example 171, 7-((2-Methyl-1H-imidazol-1-yl)methyl)-5-(1-methyl-3-(trifluoromethyl)-1H-pyrazol-4-yl)-2-((1-methylpiperidin-2-yl)methyl)-3,4-dihydroisoquinolin-1(2H)-one] — 8.2-fold higher, 6900 nM
- Cc1cc2c(c(CN3CCc4c(cc(Cn5ccnc5C)cc4-c4cn(C)nc4C(F)(F)F)C3=O)c1)OCC2 [Example 218, 7-((2-Methyl-1H-imidazol-1-yl)methyl)-2-((5-methyl-2,3-dihydrobenzofuran-7-yl)methyl)-5-(1-methyl-3-(trifluoromethyl)-1H-pyrazol-4-yl)-3,4-dihydroisoquinolin-1(2H)-one] — lower, < 50 nM
- COc1ccnc([C@H](C)N2CCc3c(cc(Cn4ccnc4C)cc3-c3cccnc3C)C2=O)c1 [Example 202, (S)-2-(1-(4-Methoxypyridin-2-yl)ethyl)-7-((2-methyl-1H-imidazol-1-yl)methyl)-5-(2-methylpyridin-3-yl)-3,4-dihydroisoquinolin-1(2H)-one] — 3.7-fold lower, 230 nM

Same assay, conditions: MV4:11 cells; 5 day incubation; CellTiter-Glo; mean of minimum two replicates; read-out: GI50 on cellular proliferation of MV4:11 human cancer cell lines

With Cn1cc(-c2cc(Cn3ccn(C)c3=N)cc3c2CCN(Cc2cc(C4CC4)nn2C)C3=O)c(C(F)(F)F)n1 [Example 147, 2-((3-Cyclopropyl-1-methyl-1H-pyrazol-5-yl)methyl)-7-((2-imino-3-methyl-2,3-dihydro-1H-imidazol-1-yl)methyl)-5-(1-methyl-3-(trifluoromethyl)-1H-pyrazol-4-yl)-3,4-dihydroisoquinolin-1(2H)-one] the GI50 was 81 nM.
